# Source: publication PMC10114980, “Triple targeting of mutant EGFR^L858R/T790M, COX-2, and 15-LOX: design and synthesis of novel quinazolinone tethered phenyl urea derivatives for anti-inflammatory and anticancer evaluation” (Journal of Enzyme Inhibition and Medicinal Chemistry, 2023)
# Key:
# MDA-MB-435 = assay: NCI single dose screen, MDA-MB-435; type: cell-based; conditions: Homo sapiens; MDA-MB-435, melanoma; single dose 10^−5 M; read-out: growth inhibition percentage
# Experimental: (§1) Screening of the anticancer activity of the newly synthesised compounds (6a, 6c, 6d, 6e, 6j, 6l, 6m, 6n, 6o, and 6p) was performed by the US National Cancer Institute (NCI) using 60 different human tumour cell lines in accordance with standard procedures formerly reported.
# (§2) In vitro anticancer screening was carried out for the selected compounds at a single dose (10^−5 M) against 60 different human tumour cell lines of nine different cancer cell types: leukaemia, lung, colon, CNS, melanoma, ovarian, renal, prostate, and breast cancers.
# A549/ATCC = assay: NCI single dose screen, A549/ATCC; type: cell-based; conditions: Homo sapiens, non-small cell lung cancer, single dose 10^−5 M, read-out: growth inhibition percentage
# Experimental: as §1, §2
# OVCAR-8 = assay: NCI single dose screen, OVCAR-8; type: cell-based; conditions: Homo sapiens; OVCAR-8, ovarian cancer; single dose 10^−5 M; read-out: growth inhibition percentage
# Experimental: as §1, §2
# SK-MEL-28 = assay: NCI single dose screen, SK-MEL-28; type: cell-based; conditions: Homo sapiens; SK-MEL-28, melanoma; single dose 10^−5 M; read-out: growth inhibition percentage
# Experimental: as §1, §2
# OVCAR-4 = assay: NCI single dose screen, OVCAR-4; type: cell-based; conditions: Homo sapiens; OVCAR-4, ovarian cancer; single dose 10^−5 M; read-out: growth inhibition percentage
# Experimental: as §1, §2
# IGROV1 = assay: NCI single dose screen, IGROV1; type: cell-based; conditions: Homo sapiens, IGROV-1; IGROV1, ovarian cancer; single dose 10^−5 M; read-out: growth inhibition percentage
# Experimental: as §1, §2
# SW-620 = assay: NCI single dose screen, SW-620; type: cell-based; conditions: Homo sapiens; SW-620, colon cancer; single dose 10^−5 M; read-out: growth inhibition percentage
# Experimental: as §1, §2
# LOX IMVI = assay: NCI single dose screen, LOX IMVI; type: cell-based; conditions: Homo sapiens, melanoma, single dose 10^−5 M, read-out: growth inhibition percentage
# Experimental: as §1, §2
# MALME-3M = assay: NCI single dose screen, MALME-3M; type: cell-based; conditions: Homo sapiens, melanoma, single dose 10^−5 M, read-out: growth inhibition percentage
# Experimental: as §1, §2
# ACHN = assay: NCI single dose screen, ACHN; type: cell-based; conditions: Homo sapiens, renal cancer, single dose 10^−5 M, read-out: growth inhibition percentage
# Experimental: as §1, §2
# BT-549 = assay: NCI single dose screen, BT-549; type: cell-based; conditions: Homo sapiens; BT-549, breast cancer; single dose 10^−5 M; read-out: growth inhibition percentage
# Experimental: as §1, §2
# SF-295 = assay: NCI single dose screen, SF-295; type: cell-based; conditions: Homo sapiens; SF-295, CNS cancer; single dose 10^−5 M; read-out: growth inhibition percentage
# Experimental: as §1, §2
# SK-MEL-2 = assay: NCI single dose screen, SK-MEL-2; type: cell-based; conditions: Homo sapiens; SK-MEL-2, melanoma; single dose 10^−5 M; read-out: growth inhibition percentage
# Experimental: as §1, §2
# soybean 15-LOX = target: T1, soybean 15-LOX (Glycine max, UniProt P08170); assay: 15-LOX inhibitor screening assay (Cayman); type: biochemical; conditions: mean ± SEM, n = 3 replicates
# T1 sequence (P08170 1-839): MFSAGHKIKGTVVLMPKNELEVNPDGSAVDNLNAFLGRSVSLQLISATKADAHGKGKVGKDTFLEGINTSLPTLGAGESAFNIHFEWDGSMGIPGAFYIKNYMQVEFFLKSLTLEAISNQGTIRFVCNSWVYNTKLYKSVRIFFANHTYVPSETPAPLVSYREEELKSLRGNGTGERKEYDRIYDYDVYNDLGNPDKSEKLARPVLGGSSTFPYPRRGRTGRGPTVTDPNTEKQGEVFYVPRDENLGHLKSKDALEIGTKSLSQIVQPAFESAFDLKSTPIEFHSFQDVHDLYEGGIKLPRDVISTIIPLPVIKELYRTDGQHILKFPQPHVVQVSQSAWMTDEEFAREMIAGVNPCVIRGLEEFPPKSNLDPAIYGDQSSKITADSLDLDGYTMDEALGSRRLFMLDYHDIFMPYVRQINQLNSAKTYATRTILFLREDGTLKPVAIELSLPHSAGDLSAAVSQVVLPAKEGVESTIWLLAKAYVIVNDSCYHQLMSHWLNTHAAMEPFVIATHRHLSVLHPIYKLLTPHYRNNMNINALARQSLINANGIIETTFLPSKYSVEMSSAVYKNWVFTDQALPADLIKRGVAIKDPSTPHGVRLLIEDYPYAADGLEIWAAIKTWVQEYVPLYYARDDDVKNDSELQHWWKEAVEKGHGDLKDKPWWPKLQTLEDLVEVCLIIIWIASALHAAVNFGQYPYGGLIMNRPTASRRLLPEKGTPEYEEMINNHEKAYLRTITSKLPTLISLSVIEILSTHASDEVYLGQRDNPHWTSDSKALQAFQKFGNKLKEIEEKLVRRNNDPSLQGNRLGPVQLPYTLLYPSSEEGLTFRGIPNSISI
# [1] = target: T2, double mutant EGFR^L858R/T790M (Homo sapiens, UniProt P00533, L858R/T790M); assay: In vitro EGFR inhibition assay, double mutant; type: biochemical; conditions: for IC50: double mutant EGFR; for Selectivity (SI): ratio of the IC50 values EGFR^WT/EGFR^L858R/T790M
# T2 construct: purchased AssayQuant Technologies, Inc. (Marlboro, MA, USA)
# [2] = tested on: LPS-induced ROS production in RAW 264.7 cells; assay: ROS production in LPS-activated RAW 264.7 macrophage cells (DCFH-DA); type: cell-based; conditions: Mus musculus, RAW264.7; LPS-activated RAW 264.7 cells; mean ± SEM, three replicates
# Experimental: TNF-α and IL-6 production were detected in RAW 264.7 macrophage cell culture supernatants following the induction of inflammation by LPS. Moreover, the probes of oxidative species 2,7-dichlorofluorescein diacetate (DCFH-DA) (Molecular Probes) and NO, 4-amino-5-methylamino-2,7-difluorofluorescein diacetate (DAF-FM diacetate) (Molecular Probes) were used to investigate the antioxidant and NO production inhibitory potential of the test compounds. Briefly, RAW 264.7 cells were cultured in black 96 well plates (200 000 cells/mL, 100 µl/well) for 24 h followed by the incubation with the individual test compounds or the reference drugs at different concentrations (12.5, 25, 50, and 100 µM) for 2 h at 37 °C. LPS was then added at a final concentration of 1 µg/mL for an additional 18 h. The cell culture supernatant was collected from cells treated with the different compounds at 25 µM to measure TNF-α and IL-6 levels (1:10 dilution) using DuoSet ELISA kits (R&D Systems, Minneapolis, MN) following the manufacturer’s instructions. Then, the plates were washed to perform ROS and NO detection assays as detailed in our previous studies[16]^,[27].
# MDA-MB-468 = assay: NCI single dose screen, MDA-MB-468; type: cell-based; conditions: Homo sapiens; MDA-MB-468, breast cancer; single dose 10^−5 M; read-out: growth inhibition percentage
# Experimental: as §1, §2
# T2 sequence (P00533 25-1210 T790M/L858R): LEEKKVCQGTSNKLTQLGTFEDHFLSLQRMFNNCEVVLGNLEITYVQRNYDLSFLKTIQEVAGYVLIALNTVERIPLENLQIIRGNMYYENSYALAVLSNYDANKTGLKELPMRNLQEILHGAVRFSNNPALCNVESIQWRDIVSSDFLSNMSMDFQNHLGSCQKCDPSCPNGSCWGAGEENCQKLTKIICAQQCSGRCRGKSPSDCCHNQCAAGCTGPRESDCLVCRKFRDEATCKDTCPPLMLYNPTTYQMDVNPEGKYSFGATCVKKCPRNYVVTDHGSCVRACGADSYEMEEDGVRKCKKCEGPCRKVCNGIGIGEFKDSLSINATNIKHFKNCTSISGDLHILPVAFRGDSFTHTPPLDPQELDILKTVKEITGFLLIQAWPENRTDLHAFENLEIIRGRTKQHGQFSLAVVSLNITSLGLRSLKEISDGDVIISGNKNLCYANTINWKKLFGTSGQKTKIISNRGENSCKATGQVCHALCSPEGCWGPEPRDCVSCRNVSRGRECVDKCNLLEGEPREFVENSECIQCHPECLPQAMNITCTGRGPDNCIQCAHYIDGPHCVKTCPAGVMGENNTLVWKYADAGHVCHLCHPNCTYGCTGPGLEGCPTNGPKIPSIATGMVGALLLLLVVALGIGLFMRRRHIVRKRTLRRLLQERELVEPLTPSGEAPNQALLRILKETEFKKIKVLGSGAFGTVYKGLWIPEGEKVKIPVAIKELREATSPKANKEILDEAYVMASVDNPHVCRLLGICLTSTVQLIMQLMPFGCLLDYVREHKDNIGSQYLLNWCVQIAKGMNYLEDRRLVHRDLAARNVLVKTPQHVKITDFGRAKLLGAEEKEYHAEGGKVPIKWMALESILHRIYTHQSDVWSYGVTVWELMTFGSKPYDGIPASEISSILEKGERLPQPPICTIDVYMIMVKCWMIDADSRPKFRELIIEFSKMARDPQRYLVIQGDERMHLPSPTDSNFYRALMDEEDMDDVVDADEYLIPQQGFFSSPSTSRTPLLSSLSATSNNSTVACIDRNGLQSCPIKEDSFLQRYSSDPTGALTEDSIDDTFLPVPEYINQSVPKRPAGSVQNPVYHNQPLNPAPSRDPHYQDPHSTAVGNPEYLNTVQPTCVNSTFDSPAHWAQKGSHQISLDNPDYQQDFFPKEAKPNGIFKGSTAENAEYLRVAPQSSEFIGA
SMILES,inhibition at 10 µM (MDA-MB-435),inhibition at 10 µM (A549/ATCC),inhibition at 10 µM (OVCAR-8),inhibition at 10 µM (SK-MEL-28),inhibition at 10 µM (OVCAR-4),inhibition at 10 µM (IGROV1),inhibition at 10 µM (SW-620),inhibition at 10 µM (LOX IMVI),inhibition at 10 µM (MALME-3M),inhibition at 10 µM (ACHN),inhibition at 10 µM (BT-549),inhibition at 10 µM (SF-295),inhibition at 10 µM (SK-MEL-2),IC50 (soybean 15-LOX),IC50 [1],Selectivity (SI) [1],IC50 [2],inhibition at 10 µM (MDA-MB-468)
"CN1c2ccccc2C(=O)N(NC(=O)Nc2ccc(F)cc2)C1c1ccc(F)cc1 (stereo not drawn) [Compound 6n, 1-(4-Fluorophenyl)-3-(2–(4-fluorophenyl)-1-methyl-4-oxo-1,4-dihydroquinazolin-3(2H)-yl)urea]",25.8%,< 10%,< 10%,< 10%,29.7%,< 10%,< 10%,31.6%,17.6%,12.6%,< 10%,< 10%,12.5%,2 ± 0.26 µM,13.5 ± 2.22 µM,>7.4,39.4 ± 2.25 µM,< 10%
"CN1c2ccccc2C(=O)N(NC(=O)Nc2ccc(F)cc2)C1c1ccc([N+](=O)[O-])cc1 (stereo not drawn) [Compound 6o, 1-(4-Fluorophenyl)-3–(1-methyl-2-(4-nitrophenyl)-4-oxo-1,4-dihydroquinazolin-3(2H)-yl)urea]",19.9%,< 10%,< 10%,< 10%,16.4%,< 10%,< 10%,29.5%,14.1%,< 10%,< 10%,< 10%,< 10%,1.42 ± 0.23 µM,36 ± 2.58 µM,1.5,23.4 ± 1.13 µM,< 10%
"COc1ccc(C2N(NC(=O)Nc3ccc(F)cc3)C(=O)c3ccccc3N2C)cc1 (stereo not drawn) [Compound 6p, 1-(4-Fluorophenyl)-3-(2–(4-methoxyphenyl)-1-methyl-4-oxo-1,4-dihydroquinazolin-3(2H)-yl)urea]",10.7%,< 10%,< 10%,< 10%,< 10%,< 10%,< 10%,18.1%,< 10%,< 10%,< 10%,< 10%,< 10%,3.87 ± 2.1 µM,5.41 ± 3.21 µM,>18.5,38.6 ± 1.33 µM,< 10%
